Like-named read-outs stand apart in the source and are kept apart here.
Key:
[1] = cited from earlier work
HIV-1SKI = experiment: CD4-dependent HIV transmission inhibition assay (cell-associated virus, GHOST cells); format: cell-based
[2] = test system: MAGI-R5 or HeLa CD4 LTR β-gal cells
HIV-1BaL = experiment: Virus attachment assay; format: cell-based; settings: Assay Virus HIV-1BaL
HIV-1IIIB = experiment: microbe, parasite or virus in culture; format: cell-based
HIV-1JR-CSF = experiment: CD4-dependent HIV transmission inhibition assay (cell-associated virus, GHOST cells); format: cell-based
in vitro [3] = settings: human
in vitro [4] = settings: human; remark: listed apart in the source
in vitro [5] = settings: human; remark: listed apart in the source
[6] = test system: CXCR4 tropic (CMU06) strain of HIV-1; experiment: HIV-1 infection and replication in PBMCs, RT activity; format: cell-based; settings: seven days, CXCR4 virus
[7] = test system: CCR5 tropic (JRCSF) strain of HIV-1; experiment: as above; format: cell-based; settings: seven days, CCR5 virus
[8] = test system: dual tropic (BR/92/014) strain of HIV-1; experiment: as above; format: cell-based; settings: seven days, dual tropic virus
[9] = CXCR4 Virus HIV-1SKI, cell-associated
[10] = Human immunodeficiency virus 1, CXCR4 Virus HIV-1SKI, cell-associated
[11] = Human immunodeficiency virus 1, Assay Virus HIV-1JR-CSF

For phthalate, the “pKa of the second (remaining dissociable) carboxylic acid group” value ([1]; moiety on the cellulose backbone) is listed as 5.28.
“hydroxypropyl methylcellulose trimellitate [HPMCT]” gave a CC50 (GHOST cells; pH 4) of 0.38%, a CC50 (GHOST cells; pH 5.85) of 0.38% and a CC50 (GHOST cells; pH 6.5) of 0.39%.
For D-mallic acid, L-mallic acid, the “pKa Values (first value)” value ([1]; room temperature) is listed as 3.4 and the “pKa Values (second value)” value ([1]; room temperature) is listed as 5.2.
With `Cc1ccc(-c2ccc3c(c2)C=C(C(=O)Nc2ccc(C[N+](C)(C)C4CCOCC4)cc2)CCC3)cc1` [TAK 779] the IC50 (HIV-1SKI; [9]) was over 10 nM, the IC90 (HIV-1SKI; [9]) was over 10 nM and the CC50 [2] was over 0.2 µM. It also gave a CC50 (GHOST cells) of over 10 nM, an IC50 (HIV-1BaL) of under 2e-06 µM and an IC90 (HIV-1BaL) of 0.04 nM. The IC50 (HIV-1IIIB; Assay Virus HIV-1IIIB, read-out: IC50) was over 200 nM, the IC90 (HIV-1IIIB; Assay Virus HIV-1IIIB, read-out: IC90) was over 200 nM and the CC50 (HeLa CD4 LTR β-gal cells) was over 200 nM. The IC50 (HIV-1JR-CSF; Assay Virus HIV-1JR-CSF) was 0.002 nM and the IC90 (HIV-1JR-CSF; Assay Virus HIV-1JR-CSF) was 0.55 nM.
With `c1cc(CN2CCCNCCNCCCNCC2)ccc1CN1CCCNCCNCCCNCC1` [AMD 3100] the IC50 (HIV-1SKI; Human immunodeficiency virus 1, Pre-incubation pH: Standard Assay) was 10 nM, the IC50 (HIV-1SKI; Human immunodeficiency virus 1, pH 4, Pre-incubation pH 4.0) was 1 nM and the IC50 (HIV-1SKI; Human immunodeficiency virus 1, pH 5.85, Pre-incubation pH 5.85) was 6 nM. It also gave an IC50 (HIV-1SKI; Human immunodeficiency virus 1, pH 6.5, Pre-incubation pH 6.5) of 80 nM, an IC50 (HIV-1SKI; [10]) of 5 nM and an IC90 (HIV-1SKI; [10]) of 60 nM. The CC50 (in vitro [3]) was over 10 µM, the CC50 (in vitro [4]) was over 10 µM and the CC50 ([2]; human) was over 10 µM. The IC50 (HIV-1BaL; Human immunodeficiency virus 1) was 3.79 µM, the IC90 (HIV-1BaL; Human immunodeficiency virus 1) was over 10000 nM and the IC50 (HIV-1IIIB; Human immunodeficiency virus 1) was 1 nM. For the same compound, the IC90 (HIV-1IIIB; Human immunodeficiency virus 1) was 8 nM, the CC50 at 4 h (in vitro [5]) was over 10 µM and the CC50 at 4 h (in vitro [5]; pH 4) was 4.03 µM. It also gave a CC50 at 4 h (in vitro [5]; pH 5.85) of over 10 µM, a CC50 at 4 h (in vitro [5]; pH 6.5) of over 10 µM and an IC50 (HIV-1JR-CSF; [11]) of over 10000 nM. For the same compound, the IC90 (HIV-1JR-CSF; [11]) was over 10000 nM.
Work on `Cc1cn([C@H]2C[C@H](N=[N+]=[N-])[C@@H](CO)O2)c(=O)[nH]c1=O` [AZT] yielded an IC50 [6] of under 0.1 nM, an IC50 [7] of 1.48 nM and an IC50 [8] of 0.27 nM.
